Experimental data: ChEMBL document CHEMBL5233262, “Anti-inflammatory activity of naturally occuring diarylheptanoids - A review” (Bioorg Med Chem, 2021)
Converted amounts (≈) assume the structure as drawn.

What was measured:
RAW264.7 [1] = experiment: Antiinflammatory activity in mouse RAW264.7 cells assessed as inhibition of LPS-induced TNFalpha level preincubated for 1 hrs followed by LPS stimulation and measured after 24 hrs by ELISA; type: functional, cell-based
Hepatocyte [2] = experiment: Hepatoprotective activity against CCL4-induced rat hepatocyte toxicity assessed as decrease in ALT level at 1 uM preincubated for 30 mins followed by CCL4 addition and measured after 180 mins by colorimetric method; type: functional; set-up: scale not given: the % may be the effect or the level left; conditions: time 210 min
Hepatocyte [3] = experiment: Hepatoprotective activity against CCL4-induced rat hepatocyte toxicity assessed as decrease in IL-1beta level at 1 uM preincubated for 30 mins followed by CCL4 addition and measured after 180 mins by ELISA; type: functional; set-up: scale not given: the % may be the effect or the level left; conditions: time 210 min
Hepatocyte [4] = experiment: Hepatoprotective activity against CCL4-induced rat hepatocyte toxicity assessed as decrease in TNF-alpha level at 1 uM preincubated for 30 mins followed by CCL4 addition and measured after 180 mins by ELISA; type: functional; set-up: scale not given: the % may be the effect or the level left; conditions: time 210 min
Hepatocyte [5] = experiment: Hepatoprotective activity against CCL4-induced rat hepatocyte toxicity assessed as decrease in TBARS level by measuring MDA formation at 1 uM preincubated for 30 mins followed by CCL4 addition and measured after 180 mins by TBARS method; type: functional; set-up: scale not given: the % may be the effect or the level left; conditions: time 210 min
RAW264.7 [6] = experiment: Antiinflammatory activity in mouse RAW264.7 cells assessed as inhibition of LPS-induced NO production preincubated for 1 hrs followed by LPS stimulation and measured after 24 hrs by Griess method; type: functional, cell-based
BV-2 = experiment: Antiinflammatory activity in mouse BV-2 cells assessed as inhibition of LPS-induced NO production at 10 uM preincubated for 1 hrs followed by LPS stimulation and measured after 24 hrs by Griess assay; type: functional; conditions: time 25 hrs
RAW264.7 [7] = experiment: Antiinflammatory activity in mouse RAW264.7 cells assessed as inhibition of LPS-induced IL-6 production; type: functional, cell-based
RAW264.7 [8] = experiment: Antiinflammatory activity in mouse RAW264.7 cells assessed as inhibition of LPS-induced TNF-alpha production; type: functional, cell-based
Mus musculus [9] = experiment: Antiinflammatory activity in ICR mouse model of TPA-induced ear edema assessed as inhibition of ear inflammation at 1 mg,TOP for 30 mins followed by TPA addition and measured after 6 hrs; type: functional; conditions: time 390 min, 6.5 h
RAW264.7 [10] = experiment: Antiinflammatory activity in mouse RAW264.7 cells assessed as inhibition of LPS-induced IL-1beta production; type: functional, cell-based
RAW264.7 [11] = experiment: Antiinflammatory activity in mouse RAW264.7 cells assessed as inhibition of LPS-induced TNFalpha production at 10 uM preincubated for 2 hrs followed by LPS stimulation and measured after 24 hrs by ELISA; type: functional; conditions: time 26 hrs
RAW264.7 [12] = experiment: Antiinflammatory activity in mouse RAW264.7 cells assessed as inhibition of LPS-induced NO production at 30 uM preincubated for 2 hrs followed by LPS stimulation and measured after 24 hrs by Griess method; type: functional; conditions: time 26 hrs
RAW264.7 [13] = experiment: Antiinflammatory activity in mouse RAW264.7 cells assessed as inhibition of LPS-induced IL-6 production at 30 uM preincubated for 2 hrs followed by LPS stimulation and measured after 24 hrs by ELISA; type: functional; conditions: time 26 hrs
RAW264.7 [14] = experiment: Antiinflammatory activity in mouse RAW264.7 cells assessed as inhibition of LPS-induced TNFalpha production at 100 uM preincubated for 2 hrs followed by LPS stimulation and measured after 24 hrs by ELISA; type: functional; conditions: time 26 hrs
RAW264.7 [15] = experiment: Antiinflammatory activity in mouse RAW264.7 cells assessed as inhibition of LPS-induced IL-6 production at 10 uM preincubated for 2 hrs followed by LPS stimulation and measured after 24 hrs by ELISA; type: functional; conditions: time 26 hrs
RAW264.7 [16] = experiment: Antiinflammatory activity in mouse RAW264.7 cells assessed as inhibition of LPS-induced TNFalpha production at 30 uM preincubated for 2 hrs followed by LPS stimulation and measured after 24 hrs by ELISA; type: functional; conditions: time 26 hrs
RAW264.7 [17] = experiment: Antiinflammatory activity in mouse RAW264.7 cells assessed as inhibition of LPS-induced TNFalpha production at 3 uM preincubated for 2 hrs followed by LPS stimulation and measured after 24 hrs by ELISA; type: functional; conditions: time 26 hrs
RAW264.7 [18] = experiment: Antiinflammatory activity in mouse RAW264.7 cells assessed as inhibition of LPS-induced NO production at 100 uM preincubated for 2 hrs followed by LPS stimulation and measured after 24 hrs by Griess method; type: functional; conditions: time 26 hrs
RAW264.7 [19] = experiment: Antiinflammatory activity in mouse RAW264.7 cells assessed as inhibition of LPS-induced NO production at 3 uM preincubated for 2 hrs followed by LPS stimulation and measured after 24 hrs by Griess method; type: functional; conditions: time 26 hrs
RAW264.7 [20] = experiment: Antiinflammatory activity in mouse RAW264.7 cells assessed as inhibition of LPS-induced IL-6 production at 3 uM preincubated for 2 hrs followed by LPS stimulation and measured after 24 hrs by ELISA; type: functional; conditions: time 26 hrs
RAW264.7 [21] = experiment: Antiinflammatory activity in mouse RAW264.7 cells assessed as inhibition of LPS-induced NO production at 10 uM preincubated for 2 hrs followed by LPS stimulation and measured after 24 hrs by Griess method; type: functional; conditions: time 26 hrs
RAW264.7 [22] = experiment: Antiinflammatory activity in mouse RAW264.7 cells assessed as inhibition of LPS-induced IL-6 production at 100 uM preincubated for 2 hrs followed by LPS stimulation and measured after 24 hrs by ELISA; type: functional; conditions: time 26 hrs
RAW264.7 [23] = experiment: Antiinflammatory activity in mouse RAW264.7 cells assessed as inhibition of LPS-induced TNFalpha production preincubated for 1 hr followed by LPS stimulation and measured after 18 hrs by immunoassay; type: functional, cell-based
RAW264.7 [24] = experiment: Antiinflammatory activity in mouse RAW264.7 cells assessed as inhibition of LPS-induced NF-kappaB expression preincubated for 1 hr followed by LPS stimulation and measured after 18 hrs by qPCR analysis; type: functional, cell-based
RAW264.7 [25] = experiment: Antiinflammatory activity in mouse RAW264.7 cells assessed as inhibition of LPS-induced NF-kappaB activation incubated for 24 hrs by SEAP microplate reader analysis; type: functional, cell-based; conditions: RAW264.7, 24 h
RAW264.7 [26] = experiment: Antiinflammatory activity in mouse RAW264.7 cells assessed as inhibition of LPS-induced NO production incubated for 24 hrs by Griess reagent based analysis; type: functional, cell-based; conditions: RAW264.7, 24 h
Rattus norvegicus [27] = experiment: Antiinflammatory activity in rat model of carrageenan-induced hind paw edema assessed as reduction in paw thickness at 100 mg/kg,ip 30mins before carrageenin exposure and measured after 3 hrs; type: functional; set-up: scale not given: the % may be the effect or the level left
Rattus norvegicus [28] = experiment: Antiinflammatory activity in rat model of ethyl phenylpropiolate-induced ear edema assessed as reduction in ear thickness administered topically and measured after 30 mins; type: functional; conditions: 0.5 h
Zingiber officinale = experiment: Inhibition of prostaglandin biosynthesis in ginger; type: functional, organism-based
RAW264.7 [29] = experiment: Antiinflammatory activity in mouse RAW264.7 cells assessed as inhibition of LPS-induced NO production; type: functional, cell-based
RAW264.7 [30] = experiment: Antiinflammatory activity in mouse RAW264.7 cells assessed as inhibition of LPS-induced NO production for 24 hrs by Griess assay; type: functional, cell-based; conditions: RAW264.7, 24 h
RAW264.7 [31] = experiment: Antiinflammatory activity against mouse RAW264.7 cells assessed as inhibition of IFN-gamma and LPS-induced COX2 production preincubated for 2 hrs followed by IFN-gamma and LPS stimulation and measured after 16 hrs by spectrophotometric analysis; type: functional, cell-based
Mus musculus [32] = experiment: Antiinflammatory activity in TPA-induced ear edema ICR mouse model assessed as inhibition of ear inflammation at 1 ug, TOP for 30 mins followed by TPA addition and measured after 6 hrs; type: functional; conditions: dose 1 µg, time 390 min, 6.5 h
Rattus norvegicus [33] = experiment: Antiinflammatory activity in rat model of carrageenan-induced paw edema assessed as reduction in paw thickness at 10 mg/kg,ip and measured after 4 hrs; type: functional; set-up: scale not given: the % may be the effect or the level left
RAW264.7 [34] = experiment: Antiinflammatory activity in mouse RAW264.7 cells assessed as inhibition of KLA-induced TNFalpha expression at 0.06 mg/ml and measured after 24 hrs by ELISA; type: functional
Rattus norvegicus [35] = experiment: Antiinflammatory activity in Wistar rat model of carrageenan-induced paw edema assessed as reduction in paw thickness at 10 mg/kg,po and measured after 5 hrs; type: functional; set-up: scale not given: the % may be the effect or the level left

COc1cc(/C=C/C(=O)CC(=O)/C=C/c2ccc(O)c(OC)c2)ccc1O [CURCUMIN]
IC50 (RAW264.7 [1]): 11.2 µM | Activity (Hepatocyte [2]): 57.6% | Activity (Hepatocyte [3]): 63.3% | Activity (Hepatocyte [4]): 37.1% | Activity (Hepatocyte [5]): 39.2% | IC50 (RAW264.7 [6]): 12.3 µM

Oc1ccc(CC[C@@H](O)C[C@@H](O)CCc2ccc(O)cc2)cc1
inhibition at 10 µM (BV-2): 65.2%

O=c1c(O)c(-c2ccc(O)c(O)c2)oc2cc(O)cc(O)c12 [QUERCETIN]
IC50 (RAW264.7 [7]): 16.8 µM | IC50 (RAW264.7 [8]): 13.6 µM | ID50 (Mus musculus [9]): 1.6 mg | IC50 (RAW264.7 [10]): 16.9 µM

COc1cc(CC[C@@H](C[C@H](O)[C@@H](O)Cc2ccc(O)cc2)O[C@@H]2OC[C@@H](O)[C@H](O)[C@H]2O)ccc1O
inhibition at 10 µM (RAW264.7 [11]): 36% | inhibition at 30 µM (RAW264.7 [12]): 39% | inhibition at 30 µM (RAW264.7 [13]): 43% | inhibition at 100 µM (RAW264.7 [14]): 36% | inhibition at 10 µM (RAW264.7 [15]): 43% | inhibition at 30 µM (RAW264.7 [16]): 36% | inhibition at 3 µM (RAW264.7 [17]): 36% | inhibition at 100 µM (RAW264.7 [18]): 39% | inhibition at 3 µM (RAW264.7 [19]): 39% | inhibition at 3 µM (RAW264.7 [20]): 43% | inhibition at 10 µM (RAW264.7 [21]): 39% | inhibition at 100 µM (RAW264.7 [22]): 43%

C=C1C(=O)O[C@@H]2[C@H]3O[C@]3(C)CC/C=C(\C)CC[C@@H]12
IC50 (RAW264.7 [23]): 2.6 µM | IC50 (RAW264.7 [24]): 3.4 µM | IC50 (RAW264.7 [25]): 3.4 µM | IC50 (RAW264.7 [26]): 2.4 µM

CC(=O)Oc1ccccc1C(=O)O [ASPIRIN]
Activity (Rattus norvegicus [27]): 80%

O=C(/C=C/C=C/c1ccccc1)CCc1ccccc1
Activity (Rattus norvegicus [27]): 44% | ID50 (Rattus norvegicus [28]): 63 µg

COc1ccc2c(c1)c(CC(=O)O)c(C)n2C(=O)c1ccc(Cl)cc1 [INDOMETHACIN]
ID50 (Mus musculus [9]): 0.3 mg | IC50 (Zingiber officinale): 4.9 µM | IC50 (RAW264.7 [29]): 26.3 µM | IC50 (RAW264.7 [30]): 32.3 µM | IC50 (RAW264.7 [31]): 26.2 µg/mL (≈ 73.2 µM) | ID50 (Mus musculus [32]): 0.9 µmol | Activity (Rattus norvegicus [33]): 55.2%

O=C(CCc1ccccc1)C[C@@H](O)CCc1ccccc1
inhibition at 60 µg/mL (RAW264.7 [34]): 35%

COc1ccc2cc1Oc1ccc(c(O)c1OC)CCCC[C@H](O)CC2
IC50 (RAW264.7 [23]): 22.3 µM | IC50 (RAW264.7 [24]): 9.4 µM | IC50 (RAW264.7 [26]): 18.2 µM

COc1cc(CCC(=O)CCCCc2ccc(O)c(O)c2)ccc1O
Activity (Hepatocyte [2]): 56.3% | Activity (Hepatocyte [3]): 58.8% | Activity (Hepatocyte [4]): 43.8% | Activity (Hepatocyte [5]): 60.4%

COc1c2ccc(c1O)CCCCC(=O)CCc1ccc(O)c(c1)O2
IC50 (RAW264.7 [23]): 22.9 µM | IC50 (RAW264.7 [24]): 9.2 µM | IC50 (RAW264.7 [26]): 18.5 µM

O=C(CCc1ccccc1)C[C@H](O)CCc1ccccc1
Activity (Rattus norvegicus [35]): 6.9% | ID50 (Mus musculus [32]): 2.1 µmol
